Converted amounts (≈) assume the structure as drawn. Where two headings read alike, the source gives them in different places.
Experiments:
[1] = target: T1, calf mucosal adenosine deaminase (ADA, EC 3.5.4.4) (Bos taurus, UniProt P56658); assay: Substrate activity and competitive inhibition of adenosine deaminase; assay type: biochemical
T1 sequence (P56658 1-363): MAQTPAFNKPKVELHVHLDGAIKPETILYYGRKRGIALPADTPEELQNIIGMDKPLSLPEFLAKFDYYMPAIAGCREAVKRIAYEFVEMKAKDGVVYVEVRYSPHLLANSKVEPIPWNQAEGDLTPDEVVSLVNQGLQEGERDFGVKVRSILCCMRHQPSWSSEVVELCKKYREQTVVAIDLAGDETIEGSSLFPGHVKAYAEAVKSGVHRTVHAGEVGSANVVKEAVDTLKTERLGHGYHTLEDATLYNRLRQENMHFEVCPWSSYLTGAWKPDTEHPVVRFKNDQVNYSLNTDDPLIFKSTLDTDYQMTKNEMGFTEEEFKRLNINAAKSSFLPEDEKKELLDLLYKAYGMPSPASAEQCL

[2] = tested on: herpes simplex type 1 virus (HSV-1) (KOS); assay: Inhibition of HSV-1 cytopathogenicity in Vero cell culture; assay type: cell-based; conditions: Human alphaherpesvirus 1, Vero, read-out: IC50 HSV-1 (KOS)
[3] = tested on: thymidine kinase-deficient (TK−) varicella-zoster virus (YS/R); assay: microbe, parasite or virus in culture; assay type: cell-based; conditions: Human alphaherpesvirus 3, Vero, read-out: IC50 TK−VZV (YS/R)
[4] = tested on: human cytomegalovirus (AD-169); assay: Inhibition of HCMV cytopathogenicity in Vero cell culture; assay type: cell-based; conditions: read-out: IC50 HCMV (AD-169)
[5] = tested on: HIV-1 (IIIB); assay: microbe, parasite or virus in culture; assay type: cell-based; conditions: Human immunodeficiency virus 1, IIIB
[6] = tested on: HIV-2 (LAV-2); assay: Inhibition of HIV-2 cytopathogenicity in MT4 cells; assay type: cell-based, human immunodeficiency virus
[7] = tested on: moloney murine sarcoma virus (MSV); assay: Inhibition of MSV cytopathogenicity in CEM cells (cell-protection assay); assay type: cell-based; conditions: Moloney murine sarcoma virus, CCRF-CEM, read-out: IC50 MSV
[8] = tested on: HSV-1 (KOS); assay: Anti-HSV-1 activity in vivo, HSV-1-induced mortality in NMRI mice; conditions: 6 days; for mean day of animal death / mean day of symptom initiation: terminated day 21; for protection against HSV-induced mortality: 150 mg/kg dose level i.p.; for responders at 100 mg/kg / responders at 150 mg/kg / responders at 250 mg/kg: Human alphaherpesvirus 1, ip, 504 h
[9] = Lipophilicity, 1-octanol/water partition coefficient
[10] = Solubility in water (phosphate buffer, UV absorbance); conditions: pH 6.8, aqueous buffer, thermodynamic from solid
[11] = tested on: Snake venom phosphodiesterase; assay: Activity of snake venom phosphodiesterase against nucleotide analogs; conditions: pH 9.2, 37° C., 8 h
[12] = tested on: thymidine kinase-positive (TK+) varicella-zoster virus (YS); assay: Inhibition of TK+ VZV cytopathogenicity in Vero cell culture; assay type: cell-based
[13] = tested on: HeLa cells; conditions: human
[14] = tested on: Vero cells; conditions: African green monkey
[15] = tested on: MT4 cells; assay: Toxicity toward MT4 cells
[16] = tested on: CEM cells; assay: Toxicity toward CEM cells
[17] = LD50 and toxicity in mice, intraperitoneal
[18] = 100 mg/kg/day i.p., read-out: percentage of HSV-1-infected mice alive at day 21 postinfection
[19] = 100 mg/kg/day i.p., read-out: percentage of HSV-1-infected mice without symptoms at day 21 postinfection
[20] = 150 mg/kg/day i.p., read-out: percentage of HSV-1-infected mice alive at day 21 postinfection
[21] = 150 mg/kg/day i.p., read-out: percentage of HSV-1-infected mice without symptoms at day 21 postinfection
[22] = 250 mg/kg/day i.p., read-out: percentage of HSV-1-infected mice alive at day 21 postinfection
[23] = 250 mg/kg/day i.p., read-out: percentage of HSV-1-infected mice without symptoms at day 21 postinfection

Row | SMILES | IC50 [2] [µg/mL] | IC50 [3] [µg/mL] | mean day of animal death ([8]; 100 mg/kg/day i.p.) [days] | mean day of symptom initiation ([8]; 100 mg/kg/day i.p.) [days] | protection against HSV-induced mortality [8] | mean day of animal death ([8]; 150 mg/kg/day i.p.) [days] | mean day of symptom initiation ([8]; 150 mg/kg/day i.p.) [days] | mean day of animal death ([8]; 250 mg/kg/day i.p.) [days] | mean day of symptom initiation ([8]; 250 mg/kg/day i.p.) [days] | responders at 100 mg/kg [8, 18] [%] | responders at 100 mg/kg [8, 19] [%] | responders at 150 mg/kg [8, 20] [%] | responders at 150 mg/kg [8, 21] [%] | responders at 250 mg/kg [8, 22] [%] | responders at 250 mg/kg [8, 23] [%] | other results
1 | Nc1ncnc2c1ncn2[C@@H]1O[C@H](COP(=O)(O)O)[C@@H](OP(=O)(O)COCCn2cnc3ncnc(N)c32)[C@H]1O [Compound 24, 9-[5′-O-(phosphono)-β-D-furanosyl]adenine-3′-[[1-(adenin-7-yl-ethoxy)methyl]phosphonate]] | 7 (≈ 11.6 µM) | 4.2 (≈ 6.97 µM) | 19.5 ± 1.2 | 16.0 ± 1.7 | full protection | >21 | 19.3 ± 1.6 | >21 | >21 | 90 | 70 | 100 | 85 | 100 | 100 | Vmax less than that of ara-A 3 ([1]; ADA substrate): about 95%; type of ADA inhibition in words ([1]; ara-A used as substrate): competitive inhibition; rel. Vmax ([1]; compound as ADA substrate, relative to ara A 3 = 1.0): 9.78 × 10^−2; Ki ([1]; inhibition of ADA with ara-A 3 as substrate): 99.7 µM; IC50 ([4]; Human betaherpesvirus 5, AD169, Vero): 11 µg/mL (≈ 18.3 µM); IC50 ([5]; MT4, read-out: IC50 HIV-1 (IIIB)): 5.9 µg/mL (≈ 9.79 µM); IC50 ([6]; Human immunodeficiency virus 2, MT4, read-out: IC50 HIV-2 (LAV-2)): 6.4 µg/mL (≈ 10.6 µM); IC50 [7]: 17 µg/mL (≈ 28.2 µM); logP at […] ([9]; 1-octanol/phosphate buffer): 0.12; solubility at 20 h ([10]; 0.10 m phosphate buffer): 3080 µg/mL (≈ 5110 µM); yield of 5′-dephosphorylated product with snake venom phosphodiesterase [11]: about 80%
2 | COC1=C(OC)/C(=C/COP(=O)(O)OC[C@H]2O[C@@H](n3cnc4c(N)ncnc43)[C@H](O)[C@@H]2OP(=O)(O)COCCn2cnc3ncnc(N)c32)OC1=O [Compound 25, 9-[[(Z)-4-(ethylidene)-2,3-dimethoxy-Δ^a,b-butenolide]-β-D-furanosyl]adenine-3′-[[1-(adenin-7-yl-ethoxy)methyl]phosphonate]-4,5′-phosphate] | 3 (≈ 3.89 µM) | 2 (≈ 2.6 µM) | >21 | 19.6 ± 1.5 | full protection | >21 | >21 | >21 | >21 | 100 | 94 | 100 | 100 | 100 | 100 | ADA substrate / inhibitor property in words [1]: neither a good substrate nor an inhibitor; IC50 TK+VZV (YS) [12]: 1.7 µg/mL (≈ 2.21 µM); IC50 ([4]; Human betaherpesvirus 5, AD169, Vero cell culture, 50% inhibition of cytopathogenicity, for 1:1 mixtures IC50 refers to known antiviral drugs): 4.1 µg/mL (≈ 5.32 µM); IC50 ([5]; MT4 cells, average of duplicates, read-out: IC50 HIV-1 (IIIB)): 4.9 µg/mL (≈ 6.36 µM); IC50 ([6]; Human immunodeficiency virus 2, MT4 cells, average of duplicates, read-out: IC50 HIV-2 (LAV-2)): 4.2 µg/mL (≈ 5.45 µM); IC50 ([7]; CEM cells, average of duplicates): 13 µg/mL (≈ 16.9 µM); HeLa cell, concentration causing microscopically visible change or disruption in about 50% of the cell sheet [13]: 326 µg/mL; Vero cell, concentration causing microscopically visible change or disruption in about 50% of the cell sheet [14]: 350 µg/mL; MT4 cell, concentration reducing the number of viable uninfected cells by 50% [15]: >300 µg/mL; CEM cell, concentration reducing the number of viable uninfected cells by 50% [16]: >300 µg/mL; LD50 ([17]; NMRI, mouse, in vivo, ip): 675 mg/kg; level up to which no toxicity was shown ([17]; mice, intraperitoneal): 400 mg/kg; logP at […] ([9]; 1-octanol/water (0.10 M phosphate buffer)): 1.37; solubility at 20 h ([10]; phosphate buffer): 5160 µg/mL (≈ 6700 µM); stability to snake venom phosphodiesterase in words [11]: completely resistant
